For orientation: LD50 means the dose at which mortality reaches 50%.

52 compounds from the CATMoS acute toxicity set (Mansouri et al. 2021) can be followed below.

Where “and” joins values, the source holds several entries; their conditions need not be identical. Equal entries are not always repeated.

The data set is described as follows: rat acute oral toxicity. To be noted: in vivo. The source says:
[…]The data set underlying the modeling effort for this project was initially compiled by NICEATM and U.S. EPA’s CCTE. Briefly, LD50 data were collected from rat acute oral systemic toxicity tests, including limit tests, ranges/confidence intervals, and discrete LD50 values. The full data set included 21,200 LD50 entries for 15,688 substances. […] Data were reviewed to ensure that LD50 values with obvious errors in the extracted data such as unit conversion errors (e.g., comma and decimal separator misplacements) were either fixed or removed. After this review, 16,209 LD50 values remained. Many of the chemicals represented had multiple LD50 entries, requiring that a single representative value per Chemical Abstracts Service Registry Number (CASRN) identifier be defined to facilitate modeling efforts. Based on ATWG feedback and to define the representative LD50 as a protective value while accounting for the distribution across multiple LD50s, the median of the lowest quartile was computed using only discrete LD50 values (omitting limit test data and range and confidence interval data). A detailed summary of the data compilation is available online on the NICEATM webpage dedicated to the collaborative modeling project (NTP 2020).
[…][…] For categorical designations, limit test and range/confidence interval LD50 data were integrated wherever possible. As such, the number of chemicals with end point values/calls varies across the modeling end points (Table 3) based on whether chemicals had representative LD50 values and/or other data. If a chemical had both, the representative value was used to determine categorical calls rather than limit test data. Some data were useable only for certain end points and categories depending on the thresholds. For example, ranges that spanned multiple hazard categories were considered only for the binary (very toxic/nontoxic) end points and omitted from rendering a determination for hazard category assignment.
[…]The final data set comprising 11,992 chemicals was split into training and evaluation sets […], respectively. This process was performed semirandomly by ordering chemicals based on the five end points (categorical and continuous LD50 values) and partitioning every fourth record into the evaluation set accordingly. This approach was taken to ensure an equivalent distribution of the LD50 values and the different hazard categories between the training and the evaluation sets without supervised sampling of the chemicals based on structures (Figure 1A). The sources of the chemical structures were also kept equivalent between the two sets, with chemical structures obtained from DSSTox, being the highest quality, representing over 75% of each set (Figure 1B).

Regarding `OC[C@@H](O)[C@H](O)[C@@H](O)CO`, the LD50 stood at 14100 mg/kg.
In turn, `O=C(O)c1ccc2cc(O)ccc2c1` displayed an LD50 of 947 mg/kg.
As for `CC1(C)C(C=C(Cl)Cl)C1C(=O)OCc1cccc(Oc2ccccc2)c1` (configuration not stated), the figure is 406 mg/kg; as for `O=C(C(Cl)(Cl)Cl)C(Cl)(Cl)Cl`, 240 mg/kg.
As to `Clc1ccccc1`, the LD50 turned out to be 1110 mg/kg.
As for `N#CCCC(Br)(C#N)CBr` (configuration not stated), the figure is 515 mg/kg.
With `CCN(C(=O)N(CC)c1ccccc1)c1ccccc1` the figure was 781 mg/kg; with `CCCSC(=O)N(CCC)CCC`, 1200 mg/kg; with `CCOP(=S)(OCC)SCSC(C)(C)C`, 1.6 mg/kg.
With `CCOP(=S)(OCC)Oc1nc(Cl)c(Cl)cc1Cl` the figure was 108 mg/kg; with `COC(=O)N(C(=O)N1CO[C@@]2(C(=O)OC)Cc3cc(Cl)ccc3C2=N1)c1ccc(OC(F)(F)F)cc1`, 268 mg/kg; with `O=C1C2CC=CCC2C(=O)N1SC(Cl)(Cl)Cl` (configuration not stated), 9000 mg/kg.
Regarding `O=C=NC1CCCCC1`, the LD50 was determined as 335 mg/kg.
As for `CC(C)CCCCCOC(=O)c1ccccc1C(=O)OCCCCCC(C)C`, the figure is 22000 mg/kg.
Compound `COP(=S)(OC)Oc1ccc(C#N)cc1` showed an LD50 of 580 mg/kg.
As for `CC(=O)N[C@@H](CS)C(=O)O`, the figure is 3000 mg/kg; as for `O=C1C2(Cl)C3(Cl)C4(Cl)C(Cl)(Cl)C5(Cl)C3(Cl)C1(Cl)C5(Cl)C24Cl` (configuration not stated), 91.3 mg/kg.
`OC[P+](CO)(CO)CO` yielded an LD50 of 161 mg/kg.
With `C=C(C)C(=O)OCCO` the figure was 5050 mg/kg; with `CC(C)(C)NCCOCCO`, 1400 mg/kg.
For `CC(C)c1ccccc1`, the LD50 was 1400 mg/kg.
On to `CCN(CC)C(=S)SSC(=S)N(CC)CC`, for which the LD50 is 500 mg/kg.
Consider `CC(=O)OC1CC(C)OC(C)O1` (configuration not stated), for which the LD50 was determined as 1930 mg/kg.
As for `CS(C)=O`, the figure is 14500 mg/kg.
With `Cc1cccnc1` the figure was 400 mg/kg; with `COc1ccc2c(c1)c(CC(=O)O)c(C)n2C(=O)c1ccc(Cl)cc1`, 2.42 mg/kg.
With `CC(C)CCCCCCCO` the figure was 6400 mg/kg; with `CCCCCCC(CO)CCCC` (configuration not stated), 13000 mg/kg.
Regarding `Oc1cc(Cl)c(Cl)cc1Cl`, the LD50 turned out to be 820 mg/kg.
With `CCC(C)C=O` (configuration not stated) the figure was 6400 mg/kg; with `CC(C)(C)c1cc(C(C)(C)C)c(O)c(C(C)(C)C)c1`, 1610 mg/kg.
As for `CC[C@H]1OC(=O)[C@H](C)[C@@H](O[C@H]2C[C@@](C)(OC)[C@@H](O)[C@H](C)O2)[C@H](C)[C@@H](O[C@@H]2O[C@H](C)C[C@H](N(C)C)[C@H]2O)[C@](C)(O)C[C@@H](C)C(=O)[C@H](C)[C@@H](O)[C@]1(C)O`, the figure is 4600 mg/kg.
As for `CCCCOC(=O)COc1ccc(Cl)cc1Cl`, the figure is 600 mg/kg; as for `CC(CC=O)CC(C)(C)C` (configuration not stated), 3240 mg/kg.
Consider `CCN(CC)c1nc(Nc2ccc(/C=C/c3ccc(Nc4nc(Nc5cc(S(=O)(=O)O)ccc5S(=O)(=O)O)nc(N(CC)CC)n4)cc3S(=O)(=O)O)c(S(=O)(=O)O)c2)nc(Nc2cc(S(=O)(=O)O)ccc2S(=O)(=O)O)n1`, for which the LD50 was found to be 11300 mg/kg.
For `O=C1NC(=O)C2C3C(C(O)(c4ccccc4)c4ccccn4)=CC(C3=C(c3ccccc3)c3ccccn3)C12` (configuration not stated), the LD50 was 3.8 mg/kg.
As for `CCCNC(=O)NS(=O)(=O)c1ccc(Cl)cc1`, the figure is 2150 mg/kg.
Compound `N#CCNC(=O)c1cnccc1C(F)(F)F` gave an LD50 of 884 mg/kg.
With `CC(C)OC(=O)Nc1ccccc1` the figure was 1000 mg/kg.
Compound `CCOC(=O)CCN(SN(C)C(=O)Oc1cccc2c1OC(C)(C)C2)C(C)C` registered an LD50 of 105 mg/kg.
With `C=CCCCC=CCOC` the figure was 4900 mg/kg; with `O=c1[nH]c(=O)n(Cl)c(=O)n1Cl`, 1170 mg/kg and 1420 mg/kg.
`CC(C)(C)CC(C)(C)c1ccc(O)cc1`: the LD50 was determined as 4040 mg/kg.
In the case of `CCCCC(C#N)(Cn1cncn1)c1ccc(Cl)cc1` (configuration not stated), the LD50 is 1600 mg/kg.
In the case of `COC(=O)CCS`, the LD50 is 182 mg/kg.
With `C=CCOC(C)=O` the figure was 130 mg/kg; with `O=C(OCC1CCC2OC2C1)C1CCC2OC2C1` (configuration not stated), 4490 mg/kg; with `C=CC(C)C#N` (configuration not stated), 232 mg/kg.
As to `N#CCCCCCCC#N`, the LD50 was 238 mg/kg.
`COP(=S)(Oc1cc(Cl)c(Br)cc1Cl)c1ccccc1` (configuration not stated) returned an LD50 of 19 mg/kg.
As for `OCC#CCO`, the figure is 104 mg/kg; as for `CSSC`, 290 mg/kg.
